Measurements taken from patent US20260294927A1, “KIF18A INHIBITOR COMPOUND, AND PHARMACEUTICAL COMPOSITION AND PREPARATION METHOD THEREFOR AND USE THEREOF” (CHANGCHUN GENESCIENCE PHARMACEUTICAL CO., LTD., priority 2022, published 2026).

Tested on: OVCAR-3 cells
Test: imaging-based nuclear count analysis (NCA) in OVCAR-3 cells
Format: cell-based
Details: Homo sapiens, 96 h, 4 days, nuclear count with Hoechst 33342, 0.1% DMSO, low control 10 μM AM-5308
Protocol: Test name: imaging-based nuclear count analysis (NCA) in OVCAR-3 cells
• a) The final test concentrations of AM-5308:10000, 3333.3, 1111.1, 370.3, 123.4, 41.1, 13.7, 4.5, 1.5, 0.5 nM. • b) The final test concentrations of the test compound: 10000, 3333.3, 1111.1, 370.3, 123.4, 41.1, 13.7, 4.5, 1.5, 0.5 nM. • c) The cells were cultured in a 37° C., 5% CO2 incubator for 4 days. • d) DMSO concentration was 0.1%. Day 1 Seeding the Cells into a 384-Well Cell Culture Plate • a) When the cell confluence reached 80%-90%, the cells were treated. • b) The cells were resuspended in a medium and then counted and diluted at a desired density. • c) A cell suspension containing appropriate cells was added to the 384-well plate at 30 μL/well: 600 cells/well. […]
High-reading control wells: cells+30 nL DMSO; low-reading control wells: 10 μM AM-5308.
IC50 (nM) was calculated using GraphPad Prism 8 software and the effect-dose curves of the compound were plotted.

O=C(Nc1cccc2c1nc1n2C2CCC1CC2)c1ccc(NS(=O)(=O)CCO)cc1N1CCC2(CC1)CC2 [Compound 100, 4-(2-hydroxyethanesulfonylamino)-2-(6-azaspiro[2.5]octan-6-yl)-N-(1,2,3,4-tetrahydro-1,4-ethylbenzo[4,5]imidazo[1,2-a]pyridin-6-yl)benzamide]
IC50: 110 nM
